Measurements from patent publication US10285865B2, “Drug-releasing device usable in mucosal body cavities” (Princeton Trade & Technololgy, Inc., priority 2014, dated 2019).
≈ marks a conversion by molar mass, not a printed value.

Experiments:
Assay type in all cases: cell-based
[1] = system: Haemophilus influenza; experiment: Minimum Inhibitory Concentration (MIC) in water
Source text: (§1) In an embodiment of the invention, the two forms of Ciprofloxacin can be combined in a single implant so as to achieve a desired the rate of delivery, the solubility limit of the drug in middle ear exudate or release of the drug. […]. The Minimum Inhibitory Concentration is the smallest concentration of a drug in water that will inhibit growth of a particular bacteria in solution.
(§2) The quantity Minimum Inhibitory Concentration (MIC) is the smallest concentration of a drug in water that will inhibit growth of a particular organism. It may be desirable for the administered concentration of a drug to be some multiple of this quantity. MIC for Ciprofloxacin is given here for several organisms typical of otitis media. For Pseudomonas aeruginosa, the MIC is 0.09 micrograms per milliliter. […] For Haemophilus influenza, the MIC is 0.06 micrograms per milliliter.

[2] = system: Pseudomonas aeruginosa; experiment: Minimum Inhibitory Concentration (MIC) in water
Source text: as §1, §2

[3] = system: Streptococcus pneumonia; experiment: Minimum Inhibitory Concentration (MIC) in water; conditions: Streptococcus pneumoniae
Source text: as §1, §2

[4] = system: Staphylococcus aureus GFP; experiment: microbe, parasite or virus in culture
Source text: as §1, §2

[5] = system: Staphylococcus aureus LUX; experiment: microbe, parasite or virus in culture
Source text: as §1, §2

`O=C(O)c1cn(C2CC2)c2cc(N3CCNCC3)c(F)cc2c1=O` [Ciprofloxacin] showed an MIC [1] of 0.06 µg/mL (≈ 0.181 µM), an MIC [2] of 0.09 µg/mL (≈ 0.272 µM) and an MIC [3] of 0.75 µg/mL (≈ 2.26 µM). It also gave an MIC [4] of 0.28 µg/mL (≈ 0.845 µM) and an MIC [5] of 0.28 µg/mL (≈ 0.845 µM).
